Measured values published in patent US12421254B2, “KRAS modulators and uses thereof” (Quanta Therapeutics, Inc., priority 2023, dated 2025).

Columns and labels:
[1] = biological target: GST-tagged KRAS-G12V (2-169) (Homo sapiens, UniProt P01116, G12V); test: Nucleotide exchange assay (NEA), SOS-mediated, HTRF, KRAS G12V; format: biochemical; settings: Table 4; IC50 extracted at 90 min; 80 nM SOS
Outline: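 GST-KRAS-G12V (2-169), 0.25 nM, pre-incubated 1 h at RT with compound, then SOS1cat (564-1049) 80 nM and GTP-DY-647P1 150 nM added in HEPES pH 7.3 buffer with MgCl2 and DTT. HTRF via anti-GST Tb cryptate read over 90 min; IC50 from 4-parameter fit at 90 min, blanked to no-SOS reactions.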

[2] = biological target: GST-tagged KRAS-G12D (2-169) (Homo sapiens, UniProt P01116, G12D); test: Nucleotide exchange assay (NEA), SOS-mediated, HTRF, KRAS G12D; format: biochemical; settings: Table 4; IC50 extracted at 30 min; 20 nM SOScat; read-out: NEA G12D IC50
Outline: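 Compound preincubated 1 h at RT with 0.25 nM GST-KRAS-G12D (2-169) and anti-GST Tb donor, then 20 nM SOS1cat (564-1049) and 150 nM GTP-DY-647P1 added; pH 7.3 HEPES buffer with MgCl2 and DTT. HTRF monitored at RT; % inhibition versus DMSO and no-SOS blank, 4-parameter IC50 taken at 30 min.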

Chain of GST-tagged KRAS-G12D (2-169) (P01116 2-169 isoform P01116-2 G12D): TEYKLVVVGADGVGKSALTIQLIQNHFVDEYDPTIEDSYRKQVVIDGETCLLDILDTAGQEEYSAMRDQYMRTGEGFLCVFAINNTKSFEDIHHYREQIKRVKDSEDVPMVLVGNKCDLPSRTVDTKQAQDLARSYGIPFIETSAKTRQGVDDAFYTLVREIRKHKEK
Chain of GST-tagged KRAS-G12V (2-169) (P01116 2-169 isoform P01116-2 G12V): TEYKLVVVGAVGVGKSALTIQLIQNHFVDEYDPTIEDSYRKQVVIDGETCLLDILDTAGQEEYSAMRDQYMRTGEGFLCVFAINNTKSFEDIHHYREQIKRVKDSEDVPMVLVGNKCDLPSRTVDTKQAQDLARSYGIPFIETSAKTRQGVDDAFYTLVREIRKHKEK

SMILES	IC50 [1]	IC50 [2]
CC(=O)N1CCC(N(C)c2nc(OC[C@@]34CCCN3C[C@H](F)C4)nc(N3CC4(C3)SCc3sc(N)c(C#N)c34)n2)C1C (stereo partly drawn) [Compound 260, 1′-[4-[(1-acetyl-2-methyl-pyrrolidin-3-yl)-methyl-amino]-6-[[(2R,8S)-2-fluoro-1,2,3,5,6,7-hexahydropyrrolizin-8-yl]methoxy]-1,3,5-triazin-2-yl]-2-amino-spiro[6H-thieno[3,4-b]thiophene-4,3′-azetidine]-3-carbonitrile]	10 to 100 nM	100 to 1000 nM
CC(O)CN(c1nc(OC[C@@]23CCCN2C[C@H](F)C3)nc(N2CC3(C2)SCc2sc(N)c(C#N)c23)n1)C1(C#N)CC1 (stereo partly drawn) [Compound 261, 2-amino-1′-[4-[(1-cyanocyclopropyl)-(2-hydroxypropyl)amino]-6-[[(2R,8S)-2-fluoro-1,2,3,5,6,7-hexahydropyrrolizin-8-yl]methoxy]-1,3,5-triazin-2-yl]spiro[6H-thieno[3,4-b]thiophene-4,3′-azetidine]-3-carbonitrile]	< 10 nM	< 10 nM
N#Cc1c(N)sc2c1C1(CN(c3nc(OC[C@@]45CCCN4C[C@H](F)C5)nc(N(CC4(O)CC4)C4(C#N)CC4)n3)C1)SC2 [Compound 263, 2-amino-1′-[4-[(1-cyanocyclopropyl)-[(1-hydroxycyclopropyl)methyl]amino]-6-[[(2R,8S)-2-fluoro-1,2,3,5,6,7-hexahydropyrrolizin-8-yl]methoxy]-1,3,5-triazin-2-yl]spiro[6H-thieno[3,4-b]thiophene-4,3′-azetidine]-3-carbonitrile]	10 to 100 nM	10 to 100 nM
N#Cc1c(N)sc2c1C1(CN(c3nc(OC[C@@]45CCCN4C[C@H](F)C5)nc(N4C5COCC4C5)n3)C1)SC2 [Compound 265, 2-amino-1′-[4-[[(2R,8S)-2-fluoro-1,2,3,5,6,7-hexahydropyrrolizin-8-yl]methoxy]-6-(3-oxa-6-azabicyclo[3.1.1]heptan-6-yl)-1,3,5-triazin-2-yl]spiro[6H-thieno[3,4-b]thiophene-4,3′-azetidine]-3-carbonitrile]	10 to 100 nM	100 to 1000 nM
N#Cc1c(N)sc2c1C1(CN(c3nc(OC[C@@]45CCCN4C[C@H](F)C5)nc(N(CC(N)=O)C4(C#N)CC4)n3)C1)SC2 [Compound 266, 2-[[4-(2-amino-3-cyano-spiro[6H-thieno[3,4-b]thiophene-4,3′-azetidine]-1′-yl)-6-[[(2R,8S)-2-fluoro-1,2,3,5,6,7-hexahydropyrrolizin-8-yl]methoxy]-1,3,5-triazin-2-yl]-(1-cyanocyclopropyl)amino]acetamide]	< 10 nM	< 10 nM
N#Cc1c(N)sc2c1C1(CN(c3nc(OC[C@@]45CCCN4C[C@H](F)C5)nc(N4C5CNC(=O)C4C5)n3)C1)SC2 (stereo partly drawn) [Compound 267, 2-amino-1′-[4-[[(2R,8S)-2-fluoro-1,2,3,5,6,7-hexahydropyrrolizin-8-yl]methoxy]-6-(2-oxo-3,6-diazabicyclo[3.1.1]heptan-6-yl)-1,3,5-triazin-2-yl]spiro[6H-thieno[3,4-b]thiophene-4,3′-azetidine]-3-carbonitrile]	< 10 nM	10 to 100 nM
CC1(O)COCCN(c2nc(OC[C@@]34CCCN3C[C@H](F)C4)nc(N3CC4(C3)SCc3sc(N)c(C#N)c34)n2)C1 (stereo partly drawn) [Compound 268, 2-amino-1′-[4-[[(2R,8S)-2-fluoro-1,2,3,5,6,7-hexahydropyrrolizin-8-yl]methoxy]-6-(6-hydroxy-6-methyl-1,4-oxazepan-4-yl)-1,3,5-triazin-2-yl]spiro[6H-thieno[3,4-b]thiophene-4,3′-azetidine]-3-carbonitrile]	< 10 nM	< 10 nM
N#Cc1c(N)sc2c1C1(CN(c3nc(OC[C@@]45CCCN4C[C@H](F)C5)nc(N4C5CSCC4C5)n3)C1)SC2 [Compound 269, 2-amino-1′-[4-[[(2R,8S)-2-fluoro-1,2,3,5,6,7-hexahydropyrrolizin-8-yl]methoxy]-6-(3-thia-6-azabicyclo[3.1.1]heptan-6-yl)-1,3,5-triazin-2-yl]spiro[6H-thieno[3,4-b]thiophene-4,3′-azetidine]-3-carbonitrile]	10 to 100 nM	100 to 1000 nM
CC1(O)COCCN(c2nc(OCC3(CN4CCOCC4)CC3)nc(N3CC4(C3)SCc3sc(N)c(C#N)c34)n2)C1 (stereo not shown) [Compound 270, 2-amino-1′-[4-(6-hydroxy-6-methyl-1,4-oxazepan-4-yl)-6-[[1-(morpholinomethyl)cyclopropyl]methoxy]-1,3,5-triazin-2-yl]spiro[6H-thieno[3,4-b]thiophene-4,3′-azetidine]-3-carbonitrile]	< 10 nM	< 10 nM
N#Cc1c(N)sc2c1C1(CN(c3nc(OC[C@@]45CCCN4C[C@H](F)C5)nc(N4C5CCC4CC(=O)NC5)n3)C1)SC2 (stereo partly drawn) [Compound 271, 2-amino-1′-[4-[[(2R,8S)-2-fluoro-1,2,3,5,6,7-hexahydropyrrolizin-8-yl]methoxy]-6-(4-oxo-3,9-diazabicyclo[4.2.1]nonan-9-yl)-1,3,5-triazin-2-yl]spiro[6H-thieno[3,4-b]thiophene-4,3′-azetidine]-3-carbonitrile]	100 to 1000 nM	1000 to 20000 nM
N#Cc1c(N)sc2c1C1(CN(c3nc(OC[C@@]45CCCN4C[C@H](F)C5)nc(N(CCN)C4(C#N)CC4)n3)C1)SC2 [Compound 272, 2-amino-1′-[4-[2-aminoethyl-(1-cyanocyclopropyl)amino]-6-[[(2R,8S)-2-fluoro-1,2,3,5,6,7-hexahydropyrrolizin-8-yl]methoxy]-1,3,5-triazin-2-yl]spiro[6H-thieno[3,4-b]thiophene-4,3′-azetidine]-3-carbonitrile; formic acid]	10 to 100 nM	< 10 nM
N#Cc1c(N)sc2c1C1(CN(c3nc(OC[C@@]45CCCN4C[C@H](F)C5)nc(N4C5CCC4CC(=O)C5)n3)C1)SC2 [Compound 273, 2-amino-1′-[4-[[(2R,8S)-2-fluoro-1,2,3,5,6,7-hexahydropyrrolizin-8-yl]methoxy]-6-(3-oxo-8-azabicyclo[3.2.1]octan-8-yl)-1,3,5-triazin-2-yl]spiro[6H-thieno[3,4-b]thiophene-4,3′-azetidine]-3-carbonitrile]	10 to 100 nM	100 to 1000 nM
N#Cc1c(N)sc2c1C1(CN(c3nc(OC[C@@]45CCCN4C[C@H](F)C5)nc(N4[C@@H]5CC[C@H]4C[C@H](O)C5)n3)C1)SC2 [Compound 275, 2-amino-1′-[4-[[(2R,8S)-2-fluoro-1,2,3,5,6,7-hexahydropyrrolizin-8-yl]methoxy]-6-[(1S,5R)-3-hydroxy-8-azabicyclo[3.2.1]octan-8-yl]-1,3,5-triazin-2-yl]spiro[6H-thieno[3,4-b]thiophene-4,3′-azetidine]-3-carbonitrile]	100 to 1000 nM	100 to 1000 nM
N#Cc1c(N)sc2c1C1(CN(c3nc(OC[C@@]45CCCN4C[C@H](F)C5)nc(N4C5CNCC4CC(=O)C5)n3)C1)SC2 [Compound 276, 2-amino-1′-[4-[[(2R,8S)-2-fluoro-1,2,3,5,6,7-hexahydropyrrolizin-8-yl]methoxy]-6-(7-oxo-3,9-diazabicyclo[3.3.1]nonan-9-yl)-1,3,5-triazin-2-yl]spiro[6H-thieno[3,4-b]thiophene-4,3′-azetidine]-3-carbonitrile]	10 to 100 nM	100 to 1000 nM
